Test results as given in patent US20030083822A2, “SYSTEMS AND METHODS FOR […] INFORMATICS” (PsychoGenics, Inc., priority 2001, published 2003).

System: mice
Assay: Transition-matrix analysis of behavior of drug-treated mice, coded by human observers (Figure 13)
Type: in vivo
Conditions: average matrix of drug treated mice normalized to control (vehicle) matrix; increase
Description: Testing drugs several times and comparing the results can address replication. Significance is illustrated in Figure 13, where exemplary data is shown from an experiment in which mice were treated with one of the indicated drugs ensuing behavior was recorded and later coded by human observers. In the analysis of transition matrices, the average matrix of the drug treated mice was combined with the average matrix of the control mice. The control data was treated as the "population" data as it was expected to have very large numbers from mice treated with same vehicle as more and more experiments that require such vehicle are conducted.
Referring again to Figure 13, the average transition matrix was transformed as a z-score matrix based on the mean and standard error of the control matrix. In doing so, every drug transition (fd,i) subtracted the corresponding control transition (fc,i) and divided by the standard error (sc,i), as in zd,i=((fd,i)-(fc,i))/(sc,i) was obtained. Although this is just one possible way to normalize the data (e.g., student t-scores can also be calculated), it has some intuitive appeal, as the z-scores can now be read as distance from the control in standard-deviation units. Thus, in Figure 13, the first cell of the matrix corresponding to chlordiazepoxide (CDP), can be read as "CDP increased the number of rear-rear transitions more than 30 fold". […]

CNC1=Nc2ccc(Cl)cc2C(c2ccccc2)=[N+]([O-])C1 [CDP, chlordiazepoxide]
number of rear-rear transitions (first cell of the z-score transition matrix): more than 30 fold
